US20230172940A1, “METHODS OF EXTENDING LIFESPAN BY ADMINISTERING FERROPTOSIS INHIBITORS” (COLLABORATIVE MEDICINAL DEVELOPMENT, LLC, priority 2020, published 2023)

How the values were obtained:
[1] = test system: E. coli (strain OP50); assay: Disk diffusion test; format: cell-based, Escherichia coli
From the text: C. elegans are bacteriophores and the E. coli (OP50) monoxenic diet can colonize the pharynx and intestine, resulting in death. Consequently, antibiotics are known to extend C. elegans lifespan. In addition, iron chelating compounds, such as EDTA have been reported to have antibiotic properties.

[2] = test system: C. elegans; assay: Movement; format: in vivo, Caenorhabditis elegans; conditions: for maximum velocity, 25% Percentile / maximum velocity, 75% Percentile / maximum velocity, Maximum / maximum velocity, Mean / maximum velocity, Median / maximum velocity, Minimum / mean velocity, 25% Percentile / mean velocity, 75% Percentile / mean velocity, Maximum / mean velocity, Mean / mean velocity, Median / mean velocity, Minimum / total distance traveled, 25% Percentile / total distance traveled, 75% Percentile / total distance traveled, Maximum / total distance traveled, Mean / total distance traveled, Median / total distance traveled, Minimum: 250 μM SIH or 200 μM Lip-1, 25° C; for total distance traveled, 25% Percentile / total distance traveled, 75% Percentile / total distance traveled, Maximum / total distance traveled, Mean / total distance traveled, Median / total distance traveled, Minimum: 30 second recording; for age-related decline in mean velocity: Kruskal-Wallis ANOVA H(7)=339.2, p<0.0001; for maximum velocity of aging animals: in vivo
Procedure: A developmentally synchronous population, derived from eggs laid over a 2-hour window, were cultured on NGA media at 25° C. for 48 h, and then as young adult worms were transferred onto three treatment plates for an additional 24 h. The treatment plates included NGM+0.5% (v/v) DMSO (vehicle control, Ctl), NGM+250 μM SIH, and NGM+200 μM Lip-1 (as described above).
Single worms were transferred to a 55 mm NGA assay plate devoid of a bacterial lawn, without a lid, and left to recover from the transfer for 2 minutes. Movement of the adults was then recorded using a stereomicroscope (Leica M80) with transmitted illumination from below. A 30 second video recording was captured using a 3 MP DFC290 HD digital camera (Leica Microsystems) at a rate of 30 frames per second. Pixel length was calibrated using a 25 μm grid slide (Microbrightfield, Inc). Recorded series were analysed using the wrMTrck plugin for ImageJ (www.phage.dk/plugins) and Fiji (a distribution of ImageJ).
The maximum velocity achieved was expressed as mm per second (as derived from the distance between displaced centroids per second). Additional metrics of movement were determined including mean velocity (mm s^−1) and (total) distance travelled (mm). These variables were collated in Prism (v7.0a GraphPad Software) and presented as a scatter plot with medians and interquartile range.

## Clc1cccc(CNC2=Nc3ccccc3NC23CCNCC3)c1 [Lip-1, N-[(3-chlorophenyl)methyl]-spiro[piperidine-4,2′(1′H)-quinoxalin]-3′-amine]
[1]
  inhibition of E. coli (strain OP50) growth: no evidence for inhibition
[2]; Day 4
  maximum velocity, 25% Percentile: 0.2711 mm per second
  maximum velocity, 75% Percentile: 0.4861 mm per second
  maximum velocity, Maximum: 0.7204 mm per second
  maximum velocity, Mean: 0.37 mm per second
  maximum velocity, Median: 0.3762 mm per second
  maximum velocity, Minimum: 0.06351 mm per second
  mean velocity, 25% Percentile: 0.05892 mm s-1
  mean velocity, 75% Percentile: 0.1839 mm s-1
  mean velocity, Maximum: 0.2606 mm s-1
  mean velocity, Mean: 0.1244 mm s-1
  mean velocity, Median: 0.1349 mm s-1
  mean velocity, Minimum: 0.01219 mm s-1
  total distance traveled, 25% Percentile: 1.797 mm
  total distance traveled, 75% Percentile: 5.397 mm
  total distance traveled, Maximum: 7.817 mm
  total distance traveled, Mean: 3.685 mm
  total distance traveled, Median: 4.126 mm
  total distance traveled, Minimum: 0.07633 mm
[2]; Day 8
  maximum velocity, 25% Percentile: 0.1478 mm per second
  maximum velocity, 75% Percentile: 0.2452 mm per second
  maximum velocity, Maximum: 0.5563 mm per second
  maximum velocity, Mean: 0.2084 mm per second
  maximum velocity, Median: 0.1922 mm per second
  maximum velocity, Minimum: 0.05622 mm per second
  mean velocity, 25% Percentile: 0.03386 mm s-1
  mean velocity, 75% Percentile: 0.06818 mm s-1
  mean velocity, Maximum: 0.1644 mm s-1
  mean velocity, Mean: 0.05407 mm s-1
  mean velocity, Median: 0.04763 mm s-1
  mean velocity, Minimum: 0.008319 mm s-1
  total distance traveled, 25% Percentile: 1.001 mm
  total distance traveled, 75% Percentile: 2.092 mm
  total distance traveled, Maximum: 4.926 mm
  total distance traveled, Mean: 1.627 mm
  total distance traveled, Median: 1.451 mm
  total distance traveled, Minimum: 0.2338 mm
[2]
  age-related decline in mean velocity: attenuates the age-related decline in mean velocity
  maximum velocity of aging animals: markedly improved

## O=C(N/N=C/c1ccccc1O)c1ccncc1 [SIH, Salicylaldehyde isonicotinoyl hydrazone]
[1]
  inhibition of E. coli (strain OP50) growth: no evidence for inhibition
[2]; Day 4
  maximum velocity, 25% Percentile: 0.3442 mm per second
  maximum velocity, 75% Percentile: 0.4755 mm per second
  maximum velocity, Maximum: 0.7127 mm per second
  maximum velocity, Mean: 0.392 mm per second
  maximum velocity, Median: 0.3733 mm per second
  maximum velocity, Minimum: 0.105 mm per second
  mean velocity, 25% Percentile: 0.1307 mm s-1
  mean velocity, 75% Percentile: 0.1824 mm s-1
  mean velocity, Maximum: 0.2629 mm s-1
  mean velocity, Mean: 0.1528 mm s-1
  mean velocity, Median: 0.1545 mm s-1
  mean velocity, Minimum: 0.02713 mm s-1
  total distance traveled, 25% Percentile: 3.977 mm
  total distance traveled, 75% Percentile: 5.513 mm
  total distance traveled, Maximum: 6.951 mm
  total distance traveled, Mean: 4.619 mm
  total distance traveled, Median: 4.766 mm
  total distance traveled, Minimum: 0.8402 mm
[2]; Day 8
  maximum velocity, 25% Percentile: 0.174 mm per second
  maximum velocity, 75% Percentile: 0.3506 mm per second
  maximum velocity, Maximum: 0.6458 mm per second
  maximum velocity, Mean: 0.2847 mm per second
  maximum velocity, Median: 0.2513 mm per second
  maximum velocity, Minimum: 0.1028 mm per second
  mean velocity, 25% Percentile: 0.04028 mm s-1
  mean velocity, 75% Percentile: 0.1029 mm s-1
  mean velocity, Maximum: 0.1739 mm s-1
  mean velocity, Mean: 0.07262 mm s-1
  mean velocity, Median: 0.05813 mm s-1
  mean velocity, Minimum: 0.02239 mm s-1
  total distance traveled, 25% Percentile: 1.224 mm
  total distance traveled, 75% Percentile: 3.193 mm
  total distance traveled, Maximum: 5.235 mm
  total distance traveled, Mean: 2.192 mm
  total distance traveled, Median: 1.784 mm
  total distance traveled, Minimum: 0.6912 mm
[2]
  age-related decline in mean velocity: attenuates the age-related decline in mean velocity
  maximum velocity of aging animals: markedly improved
